Laboratory results as given in article PMC10996005, “Identification and Development of Cyclic Peptide Inhibitors of Hypoxia Inducible Factors 1 and 2 That Disrupt Hypoxia-Response Signaling in Cancer Cells” (Journal of the American Chemical Society, 2024).
Where a SMILES comes first, the peptide text is derived from it. [ ]: non-standard residue; d: D form. Phe(4-I) = N[C@@H](Cc1ccc(I)cc1)C(=O)O

Assays:
[1] = system: CAIX and VEGF genes in Panc-1 cells; assay: qPCR of hypoxia-response genes in Panc-1 cells; assay type: cell-based; conditions: hypoxic Panc-1 cells, 50 μM, vs DMSO-treated hypoxic cells
Method: The effect of our lead inhibitor on hypoxia-response signaling was measured by qPCR in cancer cell lines. Cells were treated with either 2 μM of an analogue of the HIF-2-specific inhibitor belzutifan, PT2399 (control), or 50 μM of cyclo-CRLII(4-iodo)F, incubated in hypoxia for […], and the levels of the hypoxia-response genes CAIX([41],[42]) and VEGF([43]) were measured by qPCR. We observed a 51% drop in CAIX transcription and a 43% drop in VEGF transcription in hypoxic MCF-7 (breast cancer) cells treated with 50 μM of cyclo-CRLII(4-iodo)F versus hypoxic MCF-7 cells treated with DMSO only (Figure 6e). […] We also observed a 49% drop in CAIX expression in hypoxic HeLa (cervical cancer) cells treated with cyclo-CRLII(4-iodo)F (Figure S9b). […] We observed a 35% drop in HIF-2-driven VEGF transcription in 786-O cells treated with 50 μM of cyclo-CRLII(4-iodo)F compared to a 50% decrease in 786-O cells treated with PT2399. […]
Realtime PCR (qPCR) Assay
Cells were plated on 6cm dishes at 80% confluency and incubated overnight under normoxic conditions. The cells were then treated with compound and incubated for 18 hours in hypoxic conditions. After treatment, the cells were washed with PBS and lysed under hypoxic conditions. The total RNA was extracted from the cells using a commercial RNA extraction kit (Fisher Scientific) following the manufacturer's instructions. A commercial reverse transcription kit (Promega) was used to generate cDNA. The MyTaq™ Mix master mix and appropriate primers targeting CAIX and VEGF were used to perform the qPCR reaction using a qPCR machine (Bio-Rad).

[2] = molecular target: T1, HIF-1α in Panc-1 cells (Homo sapiens, UniProt Q16665); assay: Cellular thermal shift assay; assay type: cell-based; conditions: 40 μM, samples heated to 54 °C
T1 construct: endogenous in cells; host or cells: PANC-1
Method: Next, we used a cellular-thermal shift assay[40] to assess whether our lead molecule binds to HIF-1α in the intracellular environment. We observed a 2.9 ± 0.4-fold increased level of HIF-1α protein in Panc-1 (pancreatic cancer) cells treated with 40 μM cyclo-CRLII(4-iodo)F compared to DMSO control in samples heated to 54 °C, indicating intracellular binding of this compound to its protein target (Figure 6d). […]
highest pLDDT score was relaxes with the inbuilt amber energy minimisation and used for subsequent docking steps. HADDOCK docking was performed by assigning the HIF-1α PAS-B domain (residues 214-335) and CRLIIF residues 1, 5 and 6 as active residue binders and clustered using the inbuilt RMSD clustering algorithm.
Cellular Thermal Shift Assay
Pancreatic cancer cells (PANC-1) were plated in a T75 flask at 80% confluency overnight under normoxic conditions. The cells were then dosed with compound and incubated for 18 hours under hypoxic conditions (1% O2, 94% N2, 5% CO2, 80% Humidity). The cells were subsequently washed with PBS and divided into several aliquots, each of which was exposed to different temperatures (45°C, 48°C, 51°C, and 54°C) for 30 seconds on a thermal cycler (Bio-Rad). […] The concentration of the extracted proteins was measured using the BCA Protein Assay Kit (Sigma) following the manufacturer's instructions. […]

T1 sequence (Q16665 whole entry): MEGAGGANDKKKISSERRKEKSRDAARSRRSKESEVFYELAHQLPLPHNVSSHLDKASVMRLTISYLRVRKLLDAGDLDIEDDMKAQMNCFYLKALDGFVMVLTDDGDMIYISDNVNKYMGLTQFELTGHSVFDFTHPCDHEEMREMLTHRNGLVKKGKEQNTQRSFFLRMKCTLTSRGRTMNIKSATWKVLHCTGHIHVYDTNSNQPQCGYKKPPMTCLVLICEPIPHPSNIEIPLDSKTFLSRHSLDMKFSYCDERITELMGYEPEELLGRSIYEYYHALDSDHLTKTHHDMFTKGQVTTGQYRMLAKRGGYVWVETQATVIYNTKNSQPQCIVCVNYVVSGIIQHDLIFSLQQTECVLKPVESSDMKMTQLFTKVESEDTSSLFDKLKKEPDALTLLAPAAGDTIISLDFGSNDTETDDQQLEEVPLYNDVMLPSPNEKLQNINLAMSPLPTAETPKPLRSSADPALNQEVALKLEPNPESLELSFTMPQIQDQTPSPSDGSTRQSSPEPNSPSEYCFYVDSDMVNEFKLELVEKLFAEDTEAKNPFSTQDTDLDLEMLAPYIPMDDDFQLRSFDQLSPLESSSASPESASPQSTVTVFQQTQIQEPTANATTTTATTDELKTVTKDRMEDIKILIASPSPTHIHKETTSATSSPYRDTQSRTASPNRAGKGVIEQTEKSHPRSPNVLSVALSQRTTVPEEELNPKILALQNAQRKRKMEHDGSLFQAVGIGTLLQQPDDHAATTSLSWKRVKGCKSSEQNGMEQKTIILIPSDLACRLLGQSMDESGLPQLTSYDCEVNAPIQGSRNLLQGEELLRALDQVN

CC[C@H](C)[C@@H]1NC(=O)[C@H](CC(C)C)NC(=O)[C@H](CCCNC(=N)N)NC(=O)[C@H](CS)NC(=O)[C@H](Cc2ccc(I)cc2)NC(=O)[C@H]([C@@H](C)CC)NC1=O [cyclo-CRLII(4-iodo)F] (cyclo(CRLII[Phe(4-I)]))
drop in CAIX expression [1]: 41% | drop in VEGF transcription [1]: 26% | increased level of HIF-1α protein compared to DMSO control [2]: 2.9 ± 0.4 fold
